US11903923B2, “Use of andrographolide derivatives in preparation of medicaments for preventing and treating inflammatory bowel diseases” (GUANGZHOU MAGPIE PHARMACEUTICALS CO., LTD., priority 2015, dated 2024)

Assays:
[1] = test system: TNBS-induced ulcerative colitis mice; test: body weight of TNBS-induced ulcerative colitis mice; format: in vivo
Text: The mice of normal control group were shown lively, body hair shiny, and weight continued to increase. The model mice after TNBS enema appeared to be apathetic and lazy with body hair messy and less luster, and with water intake being reduced. The model mice were also shown continuing decrease in body weight, with an average weight loss of 17.9% on the third day compared with that before rectal perfusion.

[2] = test system: TNBS-induced ulcerative colitis mice; test: disease activity index (DAI) of TNBS-induced ulcerative colitis mice; format: in vivo; details: third day after enema
[3] = test system: TNBS-induced ulcerative colitis mice; test: colon length of TNBS-induced ulcerative colitis mice; format: in vivo; details: three days after TNBS enema
[4] = test system: TNBS-induced ulcerative colitis mice; test: morphological observation of the colon of TNBS-induced ulcerative colitis mice; format: in vivo
Text: In the TNBS model group mice, the lesions of the colon were obvious, the colon was shortened, the proximal colon was dilated with indication of obstructive lesions, and the distal intestine became narrowed with indication of ulceration with congestion, edema, erosion and intestinal wall thickening.

[5] = test system: TNBS-induced ulcerative colitis mice; test: histopathological observation (HE staining, CMDI) of the colon of TNBS-induced ulcerative colitis mice; format: in vivo
Text: Colon tissues were paraffin-embedded and sliced in parallel with HE staining.

myeloperoxidase (MPO) = test: MPO activity test in colon tissue of TNBS-induced ulcerative colitis mice; format: in vivo
Text: It can be seen from the results of MPO activity test in colonic tissues that the content of MPO in normal tissue was very low, the neutrophil infiltration was obvious in model group treated with TNBS, and the content of MPO increased obviously, being twice as that in normal group.

TNF-α = test: serum inflammatory cytokine TNF-α in TNBS-induced ulcerative colitis mice; format: in vivo
IL-6 = test: serum inflammatory cytokine IL-6 in TNBS-induced ulcerative colitis mice; format: in vivo
IL-1β = test: serum inflammatory cytokine IL-1β in TNBS-induced ulcerative colitis mice; format: in vivo
[6] = test system: p65 subunit in the NF-κB signaling pathway; test: Western blotting of p-p65 and p65 in colonic tissues; format: in vivo, mice; details: compared with the model group
Text: NF-κB, as a key transcription factor regulating the release of inflammatory cytokines, plays an important role in the complex cytokine dysregulation network of IBD. To investigate whether the inhibitory effect of AL-1 on the expression of inflammatory cytokines TNF-α, IL-6 and IL-1β is related to the activation of NF-κB signaling pathway, the present inventors used Western blotting to detect the expression of p-p65 and p65 in colonic tissues.

COX-2 = test: expression of COX-2 in colon tissue; format: in vivo; details: TNBS-induced mice
Text: Cyclooxygenase-2 (COX-2) is undetectable in normal human colonic epithelial cells, but the presence of a large amount of COX-2 can be detectable in the intestinal mucosal epithelial cells of CD patients and UC patients. Such high expression can cause elevated expression of pro-inflammatory substance of prostaglandin, and promote IBD epithelial congestion and edema.

PPAR-γ = test: amount of PPAR-γ expressed in colon tissue; format: in vivo; details: TNBS-induced mice
Text: Peroxisome proliferator-activated receptor γ (PPAR-γ) may have anti-inflammatory effects by inhibiting the expression of transcription factors NF-κB, AP-1 and other related genes, have the effects of reducing the expression of inflammatory factors and adhesion molecules, and play important role for maintaining the integrity of the intestinal mucosa. Studies have shown that, when IBD occurred, the in vivo expression of PPAR-γ would be reduced in some extent.

[7] = first 60 minutes of the reaction, in vitro; cited from earlier work

**Q.** Which “body weight of the mice” value ([1]; Mesalazine, from the second day after modeling, P<0.05) does the source give for `Nc1ccc(O)c(C(=O)O)c1` [Mesalazine, reference compound] here?
**A.** Its value is “significantly increased body weight”.

**Q.** And the “average DAI score” value ([2]; 100 mg/kg)?
**A.** Its value is 5.13.

**Q.** And the “improvement of colon length” value ([3]; Mesalazine, compared with the model groups)?
**A.** The value was “not significant”.

**Q.** What about the colon morphology ([4]; Mesalazine group) of the same molecule?
**A.** Its colon morphology is “improvement on colon injury”.

**Q.** What about the “colon histopathology (HE staining)” value ([5]; 100 mg/kg) of the same molecule?
**A.** The value was “obvious relief of myositis cell infiltration”.

**Q.** What about the “CMDI (mucosal injury)” value ([5]; Mesalazine) of the same molecule?
**A.** Its value is “significant effect to improve mucosal injury”.

**Q.** And the “MPO content in the colon tissue” value (myeloperoxidase (MPO); Mesalazine, P<0.01)?
**A.** The value was “obviously reduce the content of MPO”.

**Q.** And the “serum level of TNF-α” value (TNF-α; Mesalazine)?
**A.** Its value is “significantly lessen the increase”.

**Q.** What about the “serum level of IL-6” value (IL-6; Mesalazine) of the same molecule?
**A.** The value was “significantly lessen the increase”.

**Q.** And the “serum level of IL-1β” value (IL-1β; Mesalazine)?
**A.** The value was “significantly lessen the increase”.

**Q.** What about the “phosphorylation level of p65 in colonic tissue” value [6] of the same molecule?
**A.** Its value is “significantly reduce the phosphorylation level of p65”.

**Q.** What about the “COX-2 expression level in colon tissue” value (COX-2) of the same molecule?
**A.** The value was “effectively inhibit the increase of COX-2 expression level”.

**Q.** And the “expression of PPAR-γ in colon tissue” value (PPAR-γ)?
**A.** Its value is “significantly increased the expression of PPAR-γ”.

**Q.** What does the source list for `C=C1CCC2[C@@](C)(CC[C@@H](O)[C@@]2(C)CO)C1C/C=C1/C(=O)OCC1OC(=O)CCCCC1CCSS1` (stereo partly shown) [AL-1]?
**A.** body weight increase on average compared with the model group ([1]; AL-1 45 mg/kg, third day): 4.65%; average DAI score ([2]; 5 mg/kg): 6.00; average DAI score ([2]; 15 mg/kg): 6.25; average DAI score ([2]; 45 mg/kg): 4.00; colon length ([3]; AL-1 5, 15 and 45 mg/kg): enhanced the colonic length; colon morphology ([4]; AL-1 5, 15 and 45 mg/kg): significant reduction of the symptoms; colon histopathology (HE staining) ([5]; 5 mg/kg): obvious myositis cell infiltration of mucosa and submucosa but in much less extent as compared with the model groups; colon histopathology (HE staining) ([5]; 15 mg/kg): myositis cell infiltration was reduced; colon histopathology (HE staining) ([5]; 45 mg/kg): significant reduction in the amount of myositis cell infiltration of mucosa and submucosa; CMDI (tissue damage) ([5]; AL-1 5, 15 and 45 mg/kg): improve tissue damage in a dose-dependent manner; MPO content in the colon tissue (myeloperoxidase (MPO); AL-1 5, 15 and 45 mg/kg): lessen in a dose-dependent manner the increase of the MPO content; serum level of TNF-α (TNF-α; AL-1 5, 15, 45 mg/kg): significantly lessen the increase; serum level of IL-6 (IL-6; AL-1 5, 15, 45 mg/kg): significantly lessen the increase; serum level of IL-1β (IL-1β; AL-1 5, 15, 45 mg/kg): significantly lessen the increase; phosphorylation level of p65 in colonic tissue [6]: significantly reduce the phosphorylation level of p65; COX-2 expression level in colon tissue (COX-2): effectively inhibit the increase of COX-2 expression level; expression of PPAR-γ in colon tissue (PPAR-γ): significantly increased the expression of PPAR-γ; binding rate with the sulfydryl group of GSH relative to Andro [7]: 7 times
